EPA's CvTdb concentration-time database

Assays:
rat [1] = test: concentration in expired air after dosing; settings: dosed: trichloroethylene, male
Rat [2] = test: concentration in liver after dosing; settings: 1 h; dosed: Fluorotelomer alcohol 8+2; 24 mg/kg; oral; Male; Harlan Sprague Dawley
Rat [3] = test: concentration in plasma after dosing; settings: dosed: Fluorotelomer alcohol 8+2, 12 mg/kg, oral, Male, Harlan Sprague Dawley
Rat [4] = test: concentration in brain after dosing; settings: 0.2 h; dosed: 2-Methyltetrahydrofuran; 40 mg/kg; iv; Male; Harlan Sprague Dawley
Rat [5] = test: concentration in plasma after dosing; settings: 2 h; dosed: 2-Methyltetrahydrofuran; 40 mg/kg; iv; Female; Harlan Sprague Dawley
Rat [6] = test: concentration in plasma after dosing; settings: 2 min; dosed: 2-Methyltetrahydrofuran; 40 mg/kg; iv; Male; Harlan Sprague Dawley

ClC=C(Cl)Cl [trichloroethylene]
concentration in expired air [ng/mL], rat [1], inhalation, duration: 2 hr, Sprague Dawley
Settings | 50 ppm | 500 ppm
0.1579 h | – | 1570
0.1611 h | 155 | –
0.242 h | 178 | –
0.2441 h | – | 1630
0.3273 h | – | 1620
0.3301 h | 176 | –
0.4933 h | 177 | 1730
0.6596 h | – | 1730
0.6597 h | 179 | –
0.8258 h | – | 1800
0.8264 h | 173 | –
0.9952 h | – | 1830
0.9958 h | 179 | –
1.165 h | 188 | 1850
1.328 h | – | 1740
1.332 h | 184 | –
1.497 h | – | 1840
1.498 h | 193 | –
1.661 h | 185 | –
1.664 h | – | 1820
1.825 h | 183 | –
1.83 h | – | 1910
1.991 h | 178 | –
2 h | – | 1790
2.008 h | 61.8 | –
2.016 h | – | 704
2.04 h | 35.4 | –
2.049 h | – | 532
2.071 h | 30.5 | –
2.081 h | – | 458
2.103 h | 8.92 | –
2.113 h | – | 399
2.157 h | 17.3 | –
2.161 h | – | 379
2.238 h | 13.8 | –
2.248 h | – | 359
2.493 h | 10.2 | –
2.501 h | – | 221
2.741 h | 7.87 | –
2.754 h | – | 152
2.992 h | 7.93 | –
3 h | – | 97.3
3.244 h | 5.59 | –
3.25 h | – | 82
3.495 h | 2.05 | –
3.502 h | – | 52.1
3.746 h | 0.904 | 22.1
3.994 h | 2.17 | –
3.998 h | – | 26.5
4.494 h | 1.08 | –
4.501 h | – | 25.5
4.996 h | 1.2 | –
5 h | – | 14.7
40 s | 129 | –
42 s | – | 1270
151 s | 148 | –
167 s | – | 1440
285 s | 161 | –
293 s | – | 1500

rat [1], 6 mg/kg, oral, Wistar
Settings | concentration in expired air [ppm]
0.1223 h | 4.6
0.1642 h | 3.99
0.219 h | 3.8
0.2464 h | 2.7
0.4982 h | 1.12
0.7463 h | 0.349
1 h | 0.198
1.245 h | 0.161
1.496 h | 0.113
1.748 h | 0.0858
2 h | 0.0858
99 s | 0.987
289 s | 3.59

O=C(O)CCC(F)(F)C(F)(F)C(F)(F)C(F)(F)C(F)(F)C(F)(F)C(F)(F)F [Fluorotelomer acid 7+3]
Settings | concentration in liver [ng/g]
Rat [2] | 693

Rat [3]
Settings | concentration in plasma [ng/mL]
0.5 h | 116
9 h | 264

CC1CCCO1 (stereo unspecified) [2-Methyltetrahydrofuran]
Settings | concentration in brain [ng/mL] | concentration in plasma [ng/mL]
Rat [4] | 30800 | –
Rat [5] | – | 3580
Rat [6] | – | 57400
